Measured values taken from publication PMC5963591, “Bitopic Binding Mode of an M1 Muscarinic Acetylcholine Receptor Agonist Associated with Adverse Clinical Trial Outcomes” (Molecular Pharmacology, 2018).

How the values were obtained:
[1] = molecular target: T1, humanized M1 DREADD (Homo sapiens, UniProt P11229, A196G/Y106C); assay: Equilibrium [3H]-NMS binding, CHO Flp-In cell monolayers, M1 DREADD
T1 construct: expressed in transfected cells; host or cells: CHO Flp-In
Description: Prior to the experiment, cells were washed with 100 μl phosphate-buffered saline. […] Binding was terminated by rapid aspiration followed by two washes with 200 μl ice-cold 0.9% NaCl. Bound radioactivity was determined by liquid scintillation (Ultima Gold; PerkinElmer, Boston, MA) counting. Nonspecific binding was determined in the presence of 10 μM atropine.
Inhibition binding data were curve-fit using GraphPad Prism 6 to derive the potency (IC50) of the test compound. The equilibrium dissociation constant (KI) of the test compound was then calculated with the Cheng–Prusoff equation: KI = IC50/[1 + ([L]/KD)] using the KD value derived separately from saturation binding studies.

[2] = molecular target: [35S]-GTPγS Gαq binding in rat cortex membranes; assay: Native tissue GTPγ[35S] binding assay (Gαq antibody capture); format: biochemical
Description: GTPɣ-[^35S] ([^35S]ɣ[guanosine-5′-O-(3-[^35S]thio)triphosphate] binding in rat membranes was determined in triplicate using an antibody capture technique in 96-well plate format (DeLapp et al., 1999). Native rat membranes were prepared as follows. All procedures were performed at 4°C. Ten to fifteen milliliters of sucrose buffer (10 mM HEPES, 1 mM EGTA, 1 mM dithiothreitol, 10% sucrose, and one tablet/50 ml Complete Protease Inhibitor Cocktail, pH 7.4) was added to each tissue sample and homogenized for 10 strokes using an electric IKA RW20 homogenizer (800 rpm) (IKA, Staufen, Germany) with glass homogenizer. The homogenate was centrifuged at 1000g for 10 minutes at 4°C and the supernatant collected. The pellet was rehomogenized and centrifuged again as above and the supernatant pooled and centrifuged at 11,000g for 20 minutes at 4°C. The resulting pellet was suspended in 40 ml final storage buffer (10 mM HEPES, 1 mM EGTA, 1 mM MgCl2, and 1 mM dithiothreitol, pH 7.4) and centrifuged at 27,000g for 20 minutes at 4°C. The supernatant was removed and the final pellet was suspended in 2 ml final storage buffer. The protein concentration was measured using the Bradford method (Coomassie Plus, Bio-Rad protein assay kit; Bio-Rad, Hercules, CA) with bovine gamma globulin standards. […] Plates were counted for 1 minute/well using a Wallac MicroBeta Trilux scintillation counter (PerkinElmer). […]

[3] = molecular target: T2, M3 mAChR (Homo sapiens, UniProt P20309); assay: ERK1/2 phosphorylation, CHO cells, M3; format: cell-based
T2 construct: expressed in transfected cells; host or cells: CHO

[4] = Mouse pharmacokinetics, unbound plasma and brain concentrations; format: in vivo; details: mice, 30 minutes after i.p. administration
Description: Pharmacokinetic analyses were conducted as previously described ([Witkin et al., 2017]). Compounds were administered via intraperitoneal injection (in 5% glucose) 30 minutes prior to blood collection. Mice were anesthetized with 3% isoflurane (2 l/min), and blood was collected by cardiac puncture of the left ventricle. Blood was immediately transferred to EDTA tubes and centrifuged at 1000g for 10 minutes at 4°C; the supernatant was collected and frozen. Brains from each mouse were also dissected and snap-frozen on dry ice.
Brain samples were homogenized in three volumes of methanol/water [1:4 (v/v)] by weight. A 25-μl aliquot of each study sample, calibration standard, and control sample was added to a 96-well plate and mixed with 180 μl acetonitrile/methanol [1:1 (v/v)] containing internal standard. The samples were subsequently centrifuged, and the resulting supernatants were diluted 12.5-fold with methanol/water [1:1 (v/v)] prior to analyzing 10-μl aliquots by liquid chromatography–tandem mass spectrometry as previously described ([Bradley et al., 2017]).

[5] = molecular target: T3, human M1 mAChR (Homo sapiens, UniProt P11229); assay: IP-One (IP1) accumulation assay, CHO Flp-In human M1 cells; format: cell-based; parameters: expressed in transfected cells; host or cells: CHO Flp-In
T3 sequence (P11229 1-460): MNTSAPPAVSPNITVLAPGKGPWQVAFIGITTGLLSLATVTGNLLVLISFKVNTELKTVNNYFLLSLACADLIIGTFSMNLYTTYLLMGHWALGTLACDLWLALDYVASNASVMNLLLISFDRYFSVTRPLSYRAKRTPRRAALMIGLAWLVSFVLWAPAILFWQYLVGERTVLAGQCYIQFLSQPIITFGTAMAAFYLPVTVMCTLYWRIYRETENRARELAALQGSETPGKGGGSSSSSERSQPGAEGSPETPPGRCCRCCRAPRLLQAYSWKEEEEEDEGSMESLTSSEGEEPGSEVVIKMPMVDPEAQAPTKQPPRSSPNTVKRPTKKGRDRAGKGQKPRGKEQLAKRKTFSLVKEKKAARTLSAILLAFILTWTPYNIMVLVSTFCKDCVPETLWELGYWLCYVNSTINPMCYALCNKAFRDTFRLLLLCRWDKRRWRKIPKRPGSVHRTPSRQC
Description: Stimulation of IP accumulation was determined using the Cisbio IP-One Gq assay kit per the manufacturer’s instructions. […] CHO Flp-In cells stably expressing the human M1 mAChR were grown to confluence in T75 cell culture flasks at 37°C. Cells were washed with warm phosphate-buffered saline and detached using phosphate-buffered saline with 0.1 M EDTA. Detached cells were centrifuged at 1000g and the cells were resuspended in stimulation buffer.
All IP-One stimulations were terminated by the addition of 3 μl/well IP1-d2 solution, followed by 3 μl/well anti–IP1-cryptate solution and incubation for 1 hour at room temperature with shaking.
Functional concentration-response curves were fitted according to a four-parameter logistic equation (to determine minimum and maximum asymptotes, LogEC50, and slope; GraphPad Prism 6). […] In the absence of antagonist ([B] = 0), this equation becomes the standard four-parameter logistic equation for fitting agonist concentration-response data.

[6] = molecular target: T3, human M1 mAChR; assay: IP1 accumulation after receptor alkylation with phenoxybenzamine (functional interaction with ACh)

T2 sequence (P20309 whole entry): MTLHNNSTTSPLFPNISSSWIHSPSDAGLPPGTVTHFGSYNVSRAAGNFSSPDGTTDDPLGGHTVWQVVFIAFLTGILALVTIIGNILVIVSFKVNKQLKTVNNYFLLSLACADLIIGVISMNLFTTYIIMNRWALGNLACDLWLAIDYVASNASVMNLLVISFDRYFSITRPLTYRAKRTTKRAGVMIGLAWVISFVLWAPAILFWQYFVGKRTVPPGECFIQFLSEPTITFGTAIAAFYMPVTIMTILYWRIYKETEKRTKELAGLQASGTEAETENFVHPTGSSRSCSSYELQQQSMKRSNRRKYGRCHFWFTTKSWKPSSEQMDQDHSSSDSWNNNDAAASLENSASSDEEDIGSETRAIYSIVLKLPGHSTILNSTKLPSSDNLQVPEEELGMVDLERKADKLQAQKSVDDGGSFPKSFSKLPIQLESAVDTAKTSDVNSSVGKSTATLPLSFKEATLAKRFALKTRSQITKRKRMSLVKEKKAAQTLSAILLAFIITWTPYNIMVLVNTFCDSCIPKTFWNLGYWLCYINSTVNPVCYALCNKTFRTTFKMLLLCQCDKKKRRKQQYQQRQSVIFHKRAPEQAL
T1 sequence (P11229 whole entry Y106C/A196G): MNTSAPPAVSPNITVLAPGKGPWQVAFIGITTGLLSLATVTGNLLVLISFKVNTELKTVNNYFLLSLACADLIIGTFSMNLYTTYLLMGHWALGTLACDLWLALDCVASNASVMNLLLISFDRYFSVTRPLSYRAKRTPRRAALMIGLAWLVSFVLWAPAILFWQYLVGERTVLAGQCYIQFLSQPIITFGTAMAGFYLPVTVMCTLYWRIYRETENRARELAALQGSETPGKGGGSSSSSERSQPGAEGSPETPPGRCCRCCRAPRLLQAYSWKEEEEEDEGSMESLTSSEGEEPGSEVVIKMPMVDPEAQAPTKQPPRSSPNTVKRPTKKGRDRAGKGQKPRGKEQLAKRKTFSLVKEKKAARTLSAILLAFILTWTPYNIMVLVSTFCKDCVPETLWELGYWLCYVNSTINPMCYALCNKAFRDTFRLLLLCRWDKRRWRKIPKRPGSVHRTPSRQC

SMILES: Cc1cc(F)c2[nH]c(=O)n(C3CCN(C4CCOCC4)CC3)c2c1 [GSK1034702, 7-fluoro-5-methyl-3-[1-(oxan-4-yl)piperidin-4-yl]-1H-benzimidazol-2-one]
- Ki [1]: 1 µM
- pEC50, [^35S]-GTPγS Gαq binding [2]: 6.7 ± 0.1
- [^35S]-GTPγS Gαq binding, maximum relative to oxotremorine-M ([2]; % of maximum elicited by oxotremorine-M): approximately 37%
- functional activity in ERK1/2 phosphorylation [3]: devoid of activity
- free brain concentration versus dose [4]: increase linearly with escalating doses
- Emax ([5]; % of the maximal response elicited by ACh, read-out: IP1 accumulation, maximal response relative to ACh): ~90%
- IP1 Emax ([5]; CHO Flp-In human M1 cells): 90.1 ± 2.9
- EC50 ([5]; CHO Flp-In human M1 cells, read-out: IP1 pEC50 (converted)): 0.0794 µM
- IP1 Accumulation ΔLog10(τ/KA) ([5]; normalized to reference ligand ACh): 0.3 ± 0.2
- IP1 Accumulation Log10(τ/KA) ([5]; transduction coefficient, wild-type M1 mAChR): 7.4 ± 0.2
- Kb [6]: 0.631 µM
- agonist effect in IP1 accumulation after phenoxybenzamine ([6]; cells treated with 3 μM phenoxybenzamine): no agonist effect
